The values that follow are results of earlier work, collected in patent US20260199282A1, “METHODS AND COMPOSITIONS FOR IMPROVING DRIVING PERFORMANCE” (priority 2022, published 2026).

SMILES strings stand for the structures.

For this data set, the system named is patients with narcolepsy or idiopathic hypersomnia. Particulars: modafinil 400 mg/day; ~1.5 hours post-dose; cited from earlier work.

Take `NC(=O)C[S+]([O-])C(c1ccccc1)c1ccccc1` (stereo not shown) [modafinil]: the “mean SDLP” value was 23.6±0.6 cm.
